# Values of other authors as cited in US20240000717A1, “DRY POWDER ANTIVIRAL COMPOSITIONS AND THEIR USE FOR TREATING VIRAL INFECTION” (priority 2020, published 2024).
# System: hospitalized COVID-19 patients
# Conditions: Pan et al., MedRxiv 2020
compound,measurement,value
"CCC(CC)COC(=O)[C@H](C)N[P@](=O)(OC[C@H]1O[C@@](C#N)(c2ccc3c(N)ncnn23)[C@H](O)[C@@H]1O)Oc1ccccc1 [remdesivir, 2-ethylbutyl ((S)-(((2R,3S,4R,5R)-5-(4-aminopyrrolo[2,1-f][1,2,4]triazin-7-yl)-5-cyano-3,4-dihydroxytetrahydrofuran-2-yl)methoxy)(phenoxy)phosphoryl)-L-alaninate]",effect on 28-day mortality,little or no effect
